“And” between values parts separate entries of the source, which are not always exact repeats. Equal entries are not always repeated.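 Each compound was tested at five concentrations against cells in 96-well plates for 48 hours. Here, GI50 denotes the concentration required for 50% inhibition of growth. At the TGI there is no net growth.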

For the first test, the system named is NCI-H23 lung. Briefly: inhibition of tumour cell growth, NCI panel, 48 h.
For `CCN=C1C=CC(=C(c2ccc(N(C)C)cc2)c2ccc(N(C)C)cc2)c2ccccc21`, the GI50 was 0.03 µM and the TGI was determined as 0.211 µM.

As to `Nc1ncnc2c1ccn2C1OC2COP(=O)(O)OC2C1O` (stereo not given), the TGI came out at 9.37 µM.

Turning to `Cc1cc(N2CCCCC2)nc(N(CCNc2ccnc3cc(Cl)ccc23)Cc2ccco2)n1`, the GI50 is 1.91 µM and the TGI stood at 4.97 µM.

In the case of `O=C(O)[C@@H]1C2CC([C@@H]1C(=O)O)[C@H](N1C(=O)CCC1=O)[C@@H]2Br` (stereo not given in full), the TGI is above 100 µM.

With `CCCN1C(=O)/C(=c2\sc3n(c2=O)C2C(NN=3)N(CC)C(=O)N2CC)c2ccccc21` (stereo not given), the GI50 is 0.792 µM and the TGI turned out to be 15.8 µM.

`CCn1c(-c2nonc2N)nc2cncc(C(=O)N3CCNCC3)c21`: the GI50 was above 25 µM and the TGI is above 25 µM.

`c1ccc2[nH]c(-c3ccc(N4CCN(c5ccc(-c6nc7ccccc7[nH]6)cc5)CC4)cc3)nc2c1`: the GI50 is above 100 µM and the TGI is above 100 µM.

Consider `CCN(CC)CCOc1ccc(C(=C(C)c2ccc(Cl)cc2)c2ccc(OCCN(CC)CC)cc2)cc1`, for which the GI50 was 1.88 µM and the TGI was 6.41 µM.

Consider `C[C@]12CC[C@H]3[C@@H](CCC4=CC(=O)CC[C@@H]43)[C@@H]1CC[C@@H]2OC(=O)N(CCCl)N=O`, for which the GI50 is 5.1 µM and the TGI worked out at 33.7 µM.

In turn, `CC12CCC(=O)C=C1CCC1C2CCC2(C)C(C(=O)Cn3cnc4c(=S)nc[nH]c43)CCC12` (stereo not given) came in with a TGI of 82.5 µM.

`CN(C)CCNC(=O)c1cccn2c(=O)c3cc4ccccc4cc3nc12`: the GI50 is 0.165 µM and the TGI was found to be 1.01 µM.

In turn, `Cn1c(=O)c2[nH]c(/N=N/N3CCN(CCO)CC3)nc2n(C)c1=O` displayed a TGI above 100 µM.

As to `COc1cc2c(cc1OC)-c1ccc3cc4c(cc3c1N(CCN1CCCC1)C2)OCO4`, the GI50 is 0.447 µM and the TGI was 2.14 µM.

With `c1ccc2nc(Cn3c[n+](Cc4ccc5ccccc5n4)c4ccccc43)ccc2c1`, the GI50 is 1.47 µM and the TGI was 10.3 µM.

In turn, `O=C(O)CS(=O)(=O)C(c1ccccc1)c1ccccc1` gave a TGI above 100 µM.

On to `C=C(C)[C@@H]1CC[C@]2(C(=O)NCCCN)CC[C@]3(C)[C@H](CC[C@@H]4[C@@]5(C)CC[C@H](O)C(C)(C)[C@@H]5CC[C@]43C)[C@@H]12`, for which the GI50 was 22.6 µM and the TGI was 87.1 µM.

With `O=C(Nc1cccc(Cl)c1)Nc1ncc(CCNc2ncnc3ccsc23)s1`, the GI50 is 2.08 µM and 2.49 µM; the TGI is 20.1 µM and > 10 µM.

In the case of `CCOC(=O)Cc1c[nH]c(=S)[nH]c1=O`, the GI50 was above 100 µM and the TGI is above 100 µM.

For the compound `CCc1c(C)[nH]c(/C=C2\N=C(c3ccc[nH]3)C=C2OC)c1C`, the GI50 is 1.1 µM and the TGI stood at 11.3 µM.

`CCc1ccc(NC(=O)Nc2c[nH]c3ccccc23)cc1`: the GI50 is 36.3 µM and the TGI is above 54.1 µM.

The next test deals with UACC-257 melanoma. Briefly: inhibition of tumour cell growth, NCI panel, 48 h.
`CCN=C1C=CC(=C(c2ccc(N(C)C)cc2)c2ccc(N(C)C)cc2)c2ccccc21`: the GI50 was 0.0234 µM and the TGI is 0.0592 µM.

In the case of `Nc1ncnc2c1ccn2C1OC2COP(=O)(O)OC2C1O` (stereo not given), the TGI amounted to 9.11 µM.

For `Cc1cc(N2CCCCC2)nc(N(CCNc2ccnc3cc(Cl)ccc23)Cc2ccco2)n1`, the GI50 is 2.35 µM and the TGI was 5.79 µM.

For the compound `O=C(O)[C@@H]1C2CC([C@@H]1C(=O)O)[C@H](N1C(=O)CCC1=O)[C@@H]2Br` (stereo not given in full), the TGI is above 100 µM.

For `CCCN1C(=O)/C(=c2\sc3n(c2=O)C2C(NN=3)N(CC)C(=O)N2CC)c2ccccc21` (stereo not given), the GI50 is 1.22 µM and the TGI came to 14 µM.

On to `CCn1c(-c2nonc2N)nc2cncc(C(=O)N3CCNCC3)c21`, for which the GI50 was above 25 µM and the TGI was above 25 µM.

For the compound `c1ccc2[nH]c(-c3ccc(N4CCN(c5ccc(-c6nc7ccccc7[nH]6)cc5)CC4)cc3)nc2c1`, the GI50 was above 100 µM and the TGI is above 100 µM.

Consider `CCN(CC)CCOc1ccc(C(=C(C)c2ccc(Cl)cc2)c2ccc(OCCN(CC)CC)cc2)cc1`, for which the GI50 is 0.592 µM and the TGI stood at 1.17 µM.

`C[C@]12CC[C@H]3[C@@H](CCC4=CC(=O)CC[C@@H]43)[C@@H]1CC[C@@H]2OC(=O)N(CCCl)N=O`: the GI50 is 10.7 µM and the TGI was 24.8 µM.

The compound `CC12CCC(=O)C=C1CCC1C2CCC2(C)C(C(=O)Cn3cnc4c(=S)nc[nH]c43)CCC12` (stereo not given) showed a TGI above 100 µM.

For the compound `CN(C)CCNC(=O)c1cccn2c(=O)c3cc4ccccc4cc3nc12`, the GI50 was 0.268 µM and the TGI turned out to be 1.14 µM.

`Cn1c(=O)c2[nH]c(/N=N/N3CCN(CCO)CC3)nc2n(C)c1=O` gave a TGI above 100 µM.

On to `COc1cc2c(cc1OC)-c1ccc3cc4c(cc3c1N(CCN1CCCC1)C2)OCO4`, for which the GI50 was 9.81 µM and the TGI came to 22.2 µM.

On to `c1ccc2nc(Cn3c[n+](Cc4ccc5ccccc5n4)c4ccccc43)ccc2c1`, for which the GI50 was 2.02 µM and the TGI was found to be 5.33 µM.

The compound `O=C(O)CS(=O)(=O)C(c1ccccc1)c1ccccc1` showed a TGI above 100 µM.

For `C=C(C)[C@@H]1CC[C@]2(C(=O)NCCCN)CC[C@]3(C)[C@H](CC[C@@H]4[C@@]5(C)CC[C@H](O)C(C)(C)[C@@H]5CC[C@]43C)[C@@H]12`, the GI50 is 20.6 µM and the TGI was 55.3 µM.

With `O=C(Nc1cccc(Cl)c1)Nc1ncc(CCNc2ncnc3ccsc23)s1`, the GI50 was 2.12 µM and 1.22 µM; the TGI was 11.4 µM and 9.27 µM.

As to `CCOC(=O)Cc1c[nH]c(=S)[nH]c1=O`, the GI50 was above 100 µM and the TGI was above 100 µM.

For the compound `CCc1c(C)[nH]c(/C=C2\N=C(c3ccc[nH]3)C=C2OC)c1C`, the GI50 is 0.432 µM and the TGI worked out at 2.65 µM.

Consider `CCc1ccc(NC(=O)Nc2c[nH]c3ccccc23)cc1`, for which the GI50 was above 38.6 µM and the TGI is above 59.9 µM.

For the origin of these results see PubChem BioAssay (NCI).
